In article PMC11696576, “Next generation thiazolyl ketone inhibitors of cytosolic phospholipase A2 α for targeted cancer therapy” (Nature Communications, 2025):

The compounds below were run against T1, human calcium-independent GVIA iPLA2 (Homo sapiens, UniProt O60733) (assay: radioactivity-based mixed micelle assay, GVIA iPLA2). Conditions: 0.091 mole fraction; read-out: GVIA iPLA2 % Inhib.
T1 sequence (O60733 1-806): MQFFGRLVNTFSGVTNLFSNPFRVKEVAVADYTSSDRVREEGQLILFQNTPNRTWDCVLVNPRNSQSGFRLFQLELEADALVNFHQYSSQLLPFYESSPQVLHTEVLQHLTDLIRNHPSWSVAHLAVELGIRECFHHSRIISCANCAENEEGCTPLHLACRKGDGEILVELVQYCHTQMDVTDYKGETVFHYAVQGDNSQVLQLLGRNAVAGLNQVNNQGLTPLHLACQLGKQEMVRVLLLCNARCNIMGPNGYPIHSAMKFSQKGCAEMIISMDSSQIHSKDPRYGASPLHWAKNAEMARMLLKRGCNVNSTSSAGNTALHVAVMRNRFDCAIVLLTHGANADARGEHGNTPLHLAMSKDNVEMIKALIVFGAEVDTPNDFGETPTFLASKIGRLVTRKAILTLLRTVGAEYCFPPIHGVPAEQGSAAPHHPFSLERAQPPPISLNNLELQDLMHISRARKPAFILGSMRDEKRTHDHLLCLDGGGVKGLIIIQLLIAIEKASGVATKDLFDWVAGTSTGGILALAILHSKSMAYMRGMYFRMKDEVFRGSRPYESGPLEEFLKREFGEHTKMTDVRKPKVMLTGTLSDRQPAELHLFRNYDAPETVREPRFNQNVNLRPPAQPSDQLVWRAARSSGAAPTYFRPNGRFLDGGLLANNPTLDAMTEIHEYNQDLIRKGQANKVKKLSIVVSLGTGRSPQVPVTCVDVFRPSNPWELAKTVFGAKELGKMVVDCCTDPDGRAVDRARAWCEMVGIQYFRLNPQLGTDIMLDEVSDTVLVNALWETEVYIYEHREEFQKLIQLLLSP
Type: biochemical
Description: (§1) All synthesized thiazolyl ketones were tested for their in vitro inhibitory activity on recombinant human cPLA2α and selectivity over human calcium-independent GVIA iPLA2 and secreted GV sPLA2 using our previously described group-specific radioactivity-based mixed micelle assays. The inhibition results are presented either as per cent inhibition or as XI(50) values in Table 1. […] The XI(50) is defined as the mole fraction of the inhibitor in the total substrate interface required to inhibit the enzyme activity by 50%. For comparison purposes, previously published data for the inhibitor GK470[19] are included. […] Inhibitors were initially screened at 0.091 mol fraction (5 μL of 5 mM inhibitor in DMSO) in substrate (495 μL) in technical triplicates. […] The XI(50) value and stdev values reported are for the entire curve. This analysis was performed in GraphPad Prism v6.

SMILES	inhibition at 0.091 mole fraction [%]
CCCCCCCCc1ccc(OCC(=O)c2nc(C(=O)OCC)cs2)cc1 [GK401]	40
CCCCCCCCc1ccc(OC(C)C(=O)c2nc(C(=O)OC)cs2)cc1 (stereo not shown) [GK402]	61
COC(=O)c1csc(C(=O)COc2ccc(Oc3ccccc3)cc2)n1 [GK403]	34
CCCCCCOc1ccc(SCC(=O)c2nc(C(=O)OC)cs2)cc1 [GK419]	0
CCCCCCCOc1ccc(OCC(=O)c2nc(C(=O)OC)cs2)cc1 [GK420]	0

Further lines, results first:

inhibition at 0.091 mole fraction [%]	SMILES
7.5	CCCCCCSc1ccc(OCC(=O)c2nc(C(=O)OC)cs2)cc1 [GK427]
54	COC(=O)c1csc(C(=O)C(C)Oc2ccc(Oc3ccccc3)cc2)n1 (stereo not shown) [GK428]
67	CCCCCCCOc1ccc(OC(C)C(=O)c2nc(C(=O)OC)cs2)cc1 (stereo not shown) [GK439]
0	COC(=O)c1csc(C(=O)COc2ccc(Oc3ccc(F)cc3)cc2)n1 [GK440]
67	CCCCCCSc1ccc(OC(C)C(=O)c2nc(C(=O)OC)cs2)cc1 (stereo not shown) [GK449]

Same assay, conditions: average of triplicates; read-out: iPLA2 % inhibition at 0.091 mole fraction, average

SMILES	inhibition at 0.091 mole fraction [%]
CCCCCCCCc1ccc(OCC(=O)c2nc(C(=O)OCC)cs2)cc1 [GK401]	39.8
CCCCCCCCc1ccc(OC(C)C(=O)c2nc(C(=O)OC)cs2)cc1 (stereo not shown) [GK402]	60.8
COC(=O)c1csc(C(=O)COc2ccc(Oc3ccccc3)cc2)n1 [GK403]	34.3
CCCCCCOc1ccc(SCC(=O)c2nc(C(=O)OC)cs2)cc1 [GK419]	0
CCCCCCCOc1ccc(OCC(=O)c2nc(C(=O)OC)cs2)cc1 [GK420]	0

The next lines start with the values.

inhibition at 0.091 mole fraction [%]	SMILES
7.5	CCCCCCSc1ccc(OCC(=O)c2nc(C(=O)OC)cs2)cc1 [GK427]
53.6	COC(=O)c1csc(C(=O)C(C)Oc2ccc(Oc3ccccc3)cc2)n1 (stereo not shown) [GK428]
66.9	CCCCCCCOc1ccc(OC(C)C(=O)c2nc(C(=O)OC)cs2)cc1 (stereo not shown) [GK439]
0	COC(=O)c1csc(C(=O)COc2ccc(Oc3ccc(F)cc3)cc2)n1 [GK440]
67.1	CCCCCCSc1ccc(OC(C)C(=O)c2nc(C(=O)OC)cs2)cc1 (stereo not shown) [GK449]

Same assay, conditions: individual technical replicate; read-out: iPLA2 % inhibition at 0.091 mole fraction

SMILES	inhibition at 0.091 mole fraction [%]
CCCCCCCCc1ccc(OCC(=O)c2nc(C(=O)OCC)cs2)cc1 [GK401]	41.2
CCCCCCCCc1ccc(OC(C)C(=O)c2nc(C(=O)OC)cs2)cc1 (stereo not shown) [GK402]	59.9
COC(=O)c1csc(C(=O)COc2ccc(Oc3ccccc3)cc2)n1 [GK403]	33.6
CCCCCCOc1ccc(SCC(=O)c2nc(C(=O)OC)cs2)cc1 [GK419]	0
CCCCCCCOc1ccc(OCC(=O)c2nc(C(=O)OC)cs2)cc1 [GK420]	0

Other lines, results leading:

inhibition at 0.091 mole fraction [%]	SMILES
54.3	COC(=O)c1csc(C(=O)C(C)Oc2ccc(Oc3ccccc3)cc2)n1 (stereo not shown) [GK428]
68.3	CCCCCCCOc1ccc(OC(C)C(=O)c2nc(C(=O)OC)cs2)cc1 (stereo not shown) [GK439]
0	COC(=O)c1csc(C(=O)COc2ccc(Oc3ccc(F)cc3)cc2)n1 [GK440]
73.4	CCCCCCSc1ccc(OC(C)C(=O)c2nc(C(=O)OC)cs2)cc1 (stereo not shown) [GK449]

These compounds were tested against T2, secreted GV sPLA2 (Homo sapiens, UniProt P39877) (assay: radioactivity-based mixed micelle assay, GV sPLA2). Conditions: 0.091 mole fraction; read-out: GV sPLA2 % Inhib.
T2 sequence (P39877 21-138): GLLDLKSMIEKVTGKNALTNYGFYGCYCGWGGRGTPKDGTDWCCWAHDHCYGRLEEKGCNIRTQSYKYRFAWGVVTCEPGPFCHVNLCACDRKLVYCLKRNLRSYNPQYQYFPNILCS
Type: biochemical
Description: as §1

SMILES	inhibition at 0.091 mole fraction [%]
CCCCCCCCc1ccc(OCC(=O)c2nc(C(=O)OCC)cs2)cc1 [GK401]	46
CCCCCCCCc1ccc(OC(C)C(=O)c2nc(C(=O)OC)cs2)cc1 (stereo not shown) [GK402]	50
COC(=O)c1csc(C(=O)COc2ccc(Oc3ccccc3)cc2)n1 [GK403]	32
CCCCCCOc1ccc(SCC(=O)c2nc(C(=O)OC)cs2)cc1 [GK419]	29
CCCCCCCOc1ccc(OCC(=O)c2nc(C(=O)OC)cs2)cc1 [GK420]	46

Now from value to compound:

inhibition at 0.091 mole fraction [%]	SMILES
44	CCCCCCSc1ccc(OCC(=O)c2nc(C(=O)OC)cs2)cc1 [GK427]
36	COC(=O)c1csc(C(=O)C(C)Oc2ccc(Oc3ccccc3)cc2)n1 (stereo not shown) [GK428]
53	CCCCCCCOc1ccc(OC(C)C(=O)c2nc(C(=O)OC)cs2)cc1 (stereo not shown) [GK439]
31	COC(=O)c1csc(C(=O)COc2ccc(Oc3ccc(F)cc3)cc2)n1 [GK440]
53	CCCCCCSc1ccc(OC(C)C(=O)c2nc(C(=O)OC)cs2)cc1 (stereo not shown) [GK449]

Same assay, conditions: average of triplicates; read-out: sPLA2 % inhibition at 0.091 mole fraction, average

SMILES	inhibition at 0.091 mole fraction [%]
CCCCCCCCc1ccc(OCC(=O)c2nc(C(=O)OCC)cs2)cc1 [GK401]	46.1
CCCCCCCCc1ccc(OC(C)C(=O)c2nc(C(=O)OC)cs2)cc1 (stereo not shown) [GK402]	49.5
CCCCCCOc1ccc(SCC(=O)c2nc(C(=O)OC)cs2)cc1 [GK419]	29.2
CCCCCCCOc1ccc(OCC(=O)c2nc(C(=O)OC)cs2)cc1 [GK420]	46.4

Further lines, results first:

inhibition at 0.091 mole fraction [%]	SMILES
43.6	CCCCCCSc1ccc(OCC(=O)c2nc(C(=O)OC)cs2)cc1 [GK427]
36.4	COC(=O)c1csc(C(=O)C(C)Oc2ccc(Oc3ccccc3)cc2)n1 (stereo not shown) [GK428]
53.3	CCCCCCCOc1ccc(OC(C)C(=O)c2nc(C(=O)OC)cs2)cc1 (stereo not shown) [GK439]
30.8	COC(=O)c1csc(C(=O)COc2ccc(Oc3ccc(F)cc3)cc2)n1 [GK440]

Same assay, conditions: individual technical replicate

sPLA2 % inhibition at 0.091 mole fraction [%]	SMILES
29.2	COC(=O)c1csc(C(=O)COc2ccc(Oc3ccc(F)cc3)cc2)n1 [GK440]

Same assay, conditions: individual technical replicate; read-out: sPLA2 % inhibition at 0.091 mole fraction

SMILES	inhibition at 0.091 mole fraction [%]
CCCCCCCCc1ccc(OCC(=O)c2nc(C(=O)OCC)cs2)cc1 [GK401]	45.9
CCCCCCCCc1ccc(OC(C)C(=O)c2nc(C(=O)OC)cs2)cc1 (stereo not shown) [GK402]	50.4
COC(=O)c1csc(C(=O)COc2ccc(Oc3ccccc3)cc2)n1 [GK403]	27.6
CCCCCCOc1ccc(SCC(=O)c2nc(C(=O)OC)cs2)cc1 [GK419]	33.4
CCCCCCCOc1ccc(OCC(=O)c2nc(C(=O)OC)cs2)cc1 [GK420]	48.2

Further lines, results first:

inhibition at 0.091 mole fraction [%]	SMILES
39.7	CCCCCCSc1ccc(OCC(=O)c2nc(C(=O)OC)cs2)cc1 [GK427]
28.3	COC(=O)c1csc(C(=O)C(C)Oc2ccc(Oc3ccccc3)cc2)n1 (stereo not shown) [GK428]
50.7	CCCCCCCOc1ccc(OC(C)C(=O)c2nc(C(=O)OC)cs2)cc1 (stereo not shown) [GK439]
34.1	COC(=O)c1csc(C(=O)COc2ccc(Oc3ccc(F)cc3)cc2)n1 [GK440]
51.8	CCCCCCSc1ccc(OC(C)C(=O)c2nc(C(=O)OC)cs2)cc1 (stereo not shown) [GK449]
